Experimental data reported in PubChem BioAssay AID2060606 (Molecular Pharmacology Branch, DTP, NCI, 2025).
pIC50: −log10 of the molar value.

System: 922993-354-T-J3-PDC complex spheroids, viability, % test/control
Test: Anticancer human tumor 922993-354-T-J3-PDC patient-derived endometrial carcinoma cell line growth inhibition [CLK]
Conditions: for pIC50: curve of first compound; for viability, T/C: stronger effect = lower value
How it was run: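 Patient-derived tumor cells grown as complex spheroids with HUVEC endothelial cells and mesenchymal stem cells, treated with drug combinations. Concentrations descend in half-log steps from near clinical Cmax, or from 10 microM if Cmax unknown.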

[1] = second compound 0.0316 µM, first compound 0.0316 µM
[2] = second compound 0.0316 µM, first compound 0.1 µM
[3] = second compound 0.0316 µM, first compound 0.316 µM
[4] = second compound 0.0316 µM, first compound 1 µM
[5] = second compound 0.0316 µM, first compound 3.16 µM
[6] = second compound 0.0316 µM, first compound 10 µM
[7] = second compound 0.1 µM, first compound 0.0316 µM
[8] = second compound 0.1 µM, first compound 0.1 µM
[9] = second compound 0.1 µM, first compound 0.316 µM
[10] = second compound 0.1 µM, first compound 1 µM
[11] = second compound 0.1 µM, first compound 3.16 µM
[12] = second compound 0.1 µM, first compound 10 µM
[13] = second compound 0.316 µM, first compound 0.0316 µM
[14] = second compound 0.316 µM, first compound 0.1 µM
[15] = second compound 0.316 µM, first compound 0.316 µM
[16] = second compound 0.316 µM, first compound 1 µM
[17] = second compound 0.316 µM, first compound 3.16 µM
[18] = second compound 0.316 µM, first compound 10 µM
[19] = second compound 1 µM, first compound 0.0316 µM
[20] = second compound 1 µM, first compound 0.1 µM
[21] = second compound 1 µM, first compound 0.316 µM
[22] = second compound 1 µM, first compound 1 µM
[23] = second compound 1 µM, first compound 3.16 µM
[24] = second compound 1 µM, first compound 10 µM
[25] = second compound 3.16 µM, first compound 0.0316 µM
[26] = second compound 3.16 µM, first compound 0.1 µM
[27] = second compound 3.16 µM, first compound 0.316 µM
[28] = second compound 3.16 µM, first compound 1 µM
[29] = second compound 3.16 µM, first compound 3.16 µM
[30] = second compound 3.16 µM, first compound 10 µM
[31] = second compound 10 µM, first compound 0.0316 µM
[32] = second compound 10 µM, first compound 0.1 µM
[33] = second compound 10 µM, first compound 0.316 µM
[34] = second compound 10 µM, first compound 1 µM
[35] = second compound 10 µM, first compound 3.16 µM
[36] = second compound 10 µM, first compound 10 µM
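Also: spheroids exposed to the agents for 7 days before readout.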

## Nc1ccn(C2OC(CO)C(O)C2(F)F)c(=O)n1 (stereo unspecified) + CN1CCN(c2cc(C(=O)Nc3cc4cc(-c5cnn(C)c5)ccc4cn3)ccn2)CC1
Second compound 0.0316 µM
  pIC50: > 7.50
Second compound 0.1 µM
  pIC50: > 7.50
Second compound 0.316 µM
  pIC50: > 7.50
Second compound 1 µM
  pIC50: > 7.50
Second compound 3.16 µM
  pIC50: > 7.50
Second compound 10 µM
  pIC50: > 7.50
[1]
  viability, T/C: 20.2%
[2]
  viability, T/C: 13.4%
[3]
  viability, T/C: 16.6%
[4]
  viability, T/C: 15.9%
[5]
  viability, T/C: 16.6%
[6]
  viability, T/C: 17.2%
[7]
  viability, T/C: 23.5%
[8]
  viability, T/C: 16.3%
[9]
  viability, T/C: 15.7%
[10]
  viability, T/C: 17.2%
[11]
  viability, T/C: 16.9%
[12]
  viability, T/C: 18.4%
[13]
  viability, T/C: 14%
[14]
  viability, T/C: 11.3%
[15]
  viability, T/C: 10.3%
[16]
  viability, T/C: 11.6%
[17]
  viability, T/C: 12.5%
[18]
  viability, T/C: 11.5%
[19]
  viability, T/C: 0.1%
[20]
  viability, T/C: 0.12%
[21]
  viability, T/C: 0.13%
[22]
  viability, T/C: 0.06%
[23]
  viability, T/C: 1.89%
[24]
  viability, T/C: 0.07%
[25]
  viability, T/C: 0.11%
[26]
  viability, T/C: 2.53%
[27]
  viability, T/C: 1.37%
[28]
  viability, T/C: 0.13%
[29]
  viability, T/C: 0.85%
[30]
  viability, T/C: 2.45%
[31]
  viability, T/C: 0.16%
[32]
  viability, T/C: 1.71%
[33]
  viability, T/C: 1.82%
[34]
  viability, T/C: 0.17%
[35]
  viability, T/C: 0.67%
[36]
  viability, T/C: 1.33%

## O=C(c1cc(Cc2n[nH]c(=O)c3ccccc23)ccc1F)N1CCN(C(=O)C2CC2)CC1 + CN1CCN(c2cc(C(=O)Nc3cc4cc(-c5cnn(C)c5)ccc4cn3)ccn2)CC1
Second compound 0.0316 µM
  pIC50: < 5.00
Second compound 0.1 µM
  pIC50: < 5.00
Second compound 0.316 µM
  pIC50: > 7.50
Second compound 1 µM
  pIC50: > 7.50
Second compound 3.16 µM
  pIC50: > 7.50
Second compound 10 µM
  pIC50: > 7.50
[1]
  viability, T/C: 118%
[2]
  viability, T/C: 106%
[3]
  viability, T/C: 108%
[4]
  viability, T/C: 117%
[5]
  viability, T/C: 93.5%
[6]
  viability, T/C: 97%
[7]
  viability, T/C: 92.1%
[8]
  viability, T/C: 98.6%
[9]
  viability, T/C: 95.8%
[10]
  viability, T/C: 87%
[11]
  viability, T/C: 84.6%
[12]
  viability, T/C: 84.8%
[13]
  viability, T/C: 44.1%
[14]
  viability, T/C: 32%
[15]
  viability, T/C: 24.3%
[16]
  viability, T/C: 33%
[17]
  viability, T/C: 39.1%
[18]
  viability, T/C: 32.2%
[19]
  viability, T/C: 0.1%
[20]
  viability, T/C: 0.12%
[21]
  viability, T/C: 1.56%
[22]
  viability, T/C: 0.08%
[23]
  viability, T/C: 1.32%
[24]
  viability, T/C: 1.97%
[25]
  viability, T/C: 0.08%
[26]
  viability, T/C: 0.63%
[27]
  viability, T/C: 0.57%
[28]
  viability, T/C: 0.11%
[29]
  viability, T/C: 1.25%
[30]
  viability, T/C: 1.13%
[31]
  viability, T/C: 0.12%
[32]
  viability, T/C: 1.28%
[33]
  viability, T/C: 2.09%
[34]
  viability, T/C: 1.28%
[35]
  viability, T/C: 0.42%
[36]
  viability, T/C: 2.31%

## O=c1[nH]cc(F)c(=O)[nH]1 + CN1CCN(c2cc(C(=O)Nc3cc4cc(-c5cnn(C)c5)ccc4cn3)ccn2)CC1
Second compound 0.0316 µM
  pIC50: 5.10
Second compound 0.1 µM
  pIC50: 5.36
Second compound 0.316 µM
  pIC50: > 7.50
Second compound 1 µM
  pIC50: > 7.50
Second compound 3.16 µM
  pIC50: > 7.50
Second compound 10 µM
  pIC50: > 7.50
[1]
  viability, T/C: 104%
[2]
  viability, T/C: 99.5%
[3]
  viability, T/C: 95.2%
[4]
  viability, T/C: 114%
[5]
  viability, T/C: 65.6%
[6]
  viability, T/C: 46.1%
[7]
  viability, T/C: 102%
[8]
  viability, T/C: 87.2%
[9]
  viability, T/C: 94.1%
[10]
  viability, T/C: 80.5%
[11]
  viability, T/C: 54.2%
[12]
  viability, T/C: 38.9%
[13]
  viability, T/C: 34.3%
[14]
  viability, T/C: 34.3%
[15]
  viability, T/C: 33.3%
[16]
  viability, T/C: 31.3%
[17]
  viability, T/C: 38%
[18]
  viability, T/C: 24.6%
[19]
  viability, T/C: 0.11%
[20]
  viability, T/C: 0.38%
[21]
  viability, T/C: 0.11%
[22]
  viability, T/C: 0.78%
[23]
  viability, T/C: 1.96%
[24]
  viability, T/C: 1.27%
[25]
  viability, T/C: 0.09%
[26]
  viability, T/C: 0.09%
[27]
  viability, T/C: 1.19%
[28]
  viability, T/C: 0.76%
[29]
  viability, T/C: 0.73%
[30]
  viability, T/C: 2.29%
[31]
  viability, T/C: 0.09%
[32]
  viability, T/C: 0.11%
[33]
  viability, T/C: 0.93%
[34]
  viability, T/C: 0.13%
[35]
  viability, T/C: 2.73%
[36]
  viability, T/C: 2.68%
